# Laboratory results taken from the supplement of paper PMC12350171.
# What was measured:
# [1] = tested on: Com21 synthetic gut community; assay: community biomass OD578 after 24 h drug treatment relative to untreated (fraction of untreated control); higher = more community growth; details: community: Com21 (Com20 + E. coli ED1a)
# Method: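 Com21 (Com20 plus E. coli ED1a) was treated with drug for 24 h under anaerobic conditions in mGAM. Community OD578 was then measured and normalised to untreated Com21; mean of 3 biological replicates.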
# Streptococcus salivarius = assay: IC25 growth inhibition; higher = less potent
# Procedure, shortened: (§1)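 Under anaerobic conditions, OD578 was read hourly in a plate reader for at least three biological replicates of monocultures grown overnight in mGAM. Each culture started at an OD578 of 0.01 in pre-reduced plates holding twofold drug dilutions and 1% DMSO (or water). IC25 was reported as a tested interval: the lowest concentration where the monotonic median area under the growth curve dropped below the cutoff. That cutoff was 0.75.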
# Clostridium ramosum = assay: IC25 growth inhibition; higher = less potent
# Procedure, shortened: as §1
# Collinsella aerofaciens = assay: IC25 growth inhibition; higher = less potent
# Procedure, shortened: as §1
# Bacteroides uniformis = assay: IC25 growth inhibition; higher = less potent
# Procedure, shortened: as §1
# [2] = tested on: Bacteroides thetaiotaomicron; assay: IC25 growth inhibition; higher = less potent
# Procedure, shortened: as §1
# [3] = tested on: Yersinia pseudotuberculosis; assay: IC25 growth inhibition; higher = less potent
# Procedure, shortened: as §1
# Shigella flexneri = assay: IC25 growth inhibition; higher = less potent
# Procedure, shortened: as §1
# Escherichia coli ED1a = assay: IC25 growth inhibition; higher = less potent
# Procedure, shortened: as §1
# Bacteroides vulgatus = assay: IC25 growth inhibition; higher = less potent
# Procedure, shortened: as §1
# [4] = tested on: Streptococcus parasanguinis; assay: IC25 growth inhibition; higher = less potent
# Procedure, shortened: as §1
# Clostridium perfringens = assay: IC25 growth inhibition; higher = less potent
# Procedure, shortened: as §1
# [5] = tested on: Yersinia enterocolitica WA-314; assay: IC25 growth inhibition; higher = less potent
# Procedure, shortened: as §1
# Parabacteroides merdae = assay: IC25 growth inhibition; higher = less potent
# Procedure, shortened: as §1
# [6] = tested on: Clostridium saccharolyticum; assay: IC25 growth inhibition; higher = less potent
# Procedure, shortened: as §1
# Coprococcus comes = assay: IC25 growth inhibition; higher = less potent
# Procedure, shortened: as §1
# Bacteroides fragilis NT = assay: IC25 growth inhibition; higher = less potent
# Procedure, shortened: as §1
# Dorea formicigenerans = assay: IC25 growth inhibition; higher = less potent
# Procedure, shortened: as §1
# [7] = tested on: Fusobacterium nucleatum subsp. Nucleatum; assay: IC25 growth inhibition; higher = less potent
# Procedure, shortened: as §1
# Ruminococcus gnavus = assay: IC25 growth inhibition; higher = less potent
# Procedure, shortened: as §1
# [8] = tested on: Salmonella enterica typhimurium; assay: IC25 growth inhibition; higher = less potent
# Procedure, shortened: as §1
# Eubacterium rectale = assay: IC25 growth inhibition; higher = less potent
# Procedure, shortened: as §1
# Clostridium bolteae = assay: IC25 growth inhibition; higher = less potent
# Procedure, shortened: as §1
# Roseburia intestinalis = assay: IC25 growth inhibition; higher = less potent
# Procedure, shortened: as §1
# Vibrio cholerae = assay: IC25 growth inhibition; higher = less potent
# Procedure, shortened: as §1
# [9] = drug pretreatment concentration 20 µM
# [10] = drug pretreatment concentration 40 µM
# [11] = drug pretreatment concentration 80 µM
# [12] = drug pretreatment concentration 160 µM
# [13] = drug pretreatment concentration 10 µM
# 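Throughout, for IC25 growth inhibition: lowest concentration where monotonic median growth AUC falls below 0.75 of drug-free control.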
SMILES,"community biomass OD578 [1, 9]","community biomass OD578 [1, 10]","community biomass OD578 [1, 11]","community biomass OD578 [1, 12]",IC25 growth inhibition (Streptococcus salivarius) [µM],IC25 growth inhibition (Clostridium ramosum) [µM],IC25 growth inhibition (Collinsella aerofaciens) [µM],IC25 growth inhibition (Bacteroides uniformis) [µM],IC25 growth inhibition [2] [µM],IC25 growth inhibition [3] [µM],IC25 growth inhibition (Shigella flexneri) [µM],IC25 growth inhibition (Escherichia coli ED1a) [µM],IC25 growth inhibition (Bacteroides vulgatus) [µM],IC25 growth inhibition [4] [µM],IC25 growth inhibition (Clostridium perfringens) [µM],IC25 growth inhibition [5] [µM],IC25 growth inhibition (Parabacteroides merdae) [µM],IC25 growth inhibition [6] [µM],IC25 growth inhibition (Coprococcus comes) [µM],IC25 growth inhibition (Bacteroides fragilis NT) [µM],IC25 growth inhibition (Dorea formicigenerans) [µM],IC25 growth inhibition [7] [µM],IC25 growth inhibition (Ruminococcus gnavus) [µM],IC25 growth inhibition [8] [µM],IC25 growth inhibition (Eubacterium rectale) [µM],IC25 growth inhibition (Clostridium bolteae) [µM],IC25 growth inhibition (Roseburia intestinalis) [µM],IC25 growth inhibition (Vibrio cholerae) [µM],"community biomass OD578 [1, 13]",community biomass OD578 ([1]; drug pretreatment concentration 2.5 µM),community biomass OD578 ([1]; drug pretreatment concentration 5 µM)
CCC(C)(C)C(=O)O[C@H]1C[C@@H](C)C=C2C=C[C@H](C)[C@H](CC[C@@H]3C[C@@H](O)CC(=O)O3)[C@H]21 [Simvastatin],0.99,0.946,0.844,0.687,≤ 20,≤ 40,≤ 80,≤ 40,≤ 40,> 80,> 80,> 160,≤ 20,≤ 80,≤ 40,> 80,≤ 40,≤ 80,> 80,≤ 40,≤ 80,> 80,≤ 40,> 80,≤ 20,> 80,≤ 20,> 80,,,
CN(N=O)C(=O)N[C@@H](C=O)[C@@H](O)[C@H](O)[C@H](O)CO [Streptozotocin],0.921,0.872,0.859,0.889,> 160,< 1.25,≤ 10,≤ 40,≤ 40,≤ 2.5,≤ 2.5,≤ 2.5,≤ 20,≤ 20,> 160,≤ 2.5,≤ 20,< 1.25,≤ 2.5,≤ 20,> 160,< 1.25,< 1.25,≤ 10,> 160,≤ 2.5,< 1.25,≤ 2.5,0.909,,
CC/C(=C(\c1ccccc1)c1ccc(OCCN(C)C)cc1)c1ccccc1 [Tamoxifen],0.977,0.719,,,> 40,> 40,≤ 40,≤ 40,≤ 40,> 40,> 40,> 40,> 40,> 40,> 40,> 40,> 40,> 40,> 40,> 40,≤ 20,> 40,≤ 40,> 40,≤ 5,> 40,≤ 20,> 40,1,1,1.01
C[C@]1(Cn2ccnn2)[C@H](C(=O)O)N2C(=O)C[C@H]2S1(=O)=O [Tazobactam],0.79,0.716,0.733,0.722,≤ 160,> 160,≤ 160,≤ 5,≤ 20,> 160,≤ 160,≤ 160,≤ 10,≤ 40,≤ 80,> 160,≤ 10,≤ 80,≤ 80,≤ 10,≤ 20,≤ 20,≤ 160,≤ 160,≤ 5,> 160,≤ 40,> 160,0.834,,
